Measurements taken from ChEMBL document CHEMBL3046893, “Antimicrobial screening of novel synthesized benzimidazole nucleus containing 4-oxo-thiazolidine derivatives” (2012).
Values after ≈ are worked out from the molar mass of the structure shown.

Legend:
Type in all cases: functional
[1] = tested on: Streptococcus pyogenes; experiment: Antibacterial activity against Streptococcus pyogenes MTCC 442 after 24 to 48 hr by serial broth dilution method
[2] = tested on: Staphylococcus aureus; experiment: Antibacterial activity against Staphylococcus aureus MTCC 96 after 24 to 48 hr by serial broth dilution method
[3] = tested on: Escherichia coli; experiment: Antibacterial activity against Escherichia coli MTCC 443 after 24 to 48 hr by serial broth dilution method
[4] = tested on: Pseudomonas aeruginosa; experiment: Antibacterial activity against Pseudomonas aeruginosa MTCC 1688 after 24 to 48 hr by serial broth dilution method
[5] = tested on: Aspergillus clavatus; experiment: Antifungal activity against Aspergillus clavatus MTCC 1323
[6] = tested on: Aspergillus niger; experiment: Antifungal activity against Aspergillus niger MTCC 282
[7] = tested on: Candida albicans; experiment: Antifungal activity against Candida albicans MTCC 227

Structure (SMILES)	MIC ([1]; read-out: MIC) [µg/mL]	MIC [2] [µg/mL]	MIC [3] [µg/mL]	MIC [4] [µg/mL]	MIC [5] [µg/mL]	MIC [6] [µg/mL]	MIC [7] [µg/mL]	MIC [1] [µg/mL]
CC1(C)S[C@@H]2[C@H](NC(=O)[C@H](N)c3ccccc3)C(=O)N2[C@H]1C(=O)O [AMPICILLIN]	100 (≈ 286 µM)	250 (≈ 715 µM)	100 (≈ 286 µM)	100 (≈ 286 µM)	–	–	–	–
COc1cc(C2SCC(=O)N2c2ccccc2-c2nc3ccc(C)cc3[nH]2)cc(OC)c1OC (stereo unspecified)	250 (≈ 526 µM)	500 (≈ 1050 µM)	500 (≈ 1050 µM)	250 (≈ 526 µM)	1000 (≈ 2100 µM)	1000 (≈ 2100 µM)	500 (≈ 1050 µM)	–
Cc1ccc2nc(-c3ccccc3N3C(=O)CSC3c3ccc(F)cc3)[nH]c2c1 (stereo unspecified)	250 (≈ 620 µM)	250 (≈ 620 µM)	250 (≈ 620 µM)	250 (≈ 620 µM)	1000 (≈ 2480 µM)	500 (≈ 1240 µM)	500 (≈ 1240 µM)	–
Cc1ccc2nc(-c3ccccc3N3C(=O)CSC3c3ccc([N+](=O)[O-])cc3)[nH]c2c1 (stereo unspecified)	250 (≈ 581 µM)	250 (≈ 581 µM)	500 (≈ 1160 µM)	250 (≈ 581 µM)	1000 (≈ 2320 µM)	1000 (≈ 2320 µM)	500 (≈ 1160 µM)	–
Cc1ccc2nc(-c3ccccc3N3C(=O)CSC3c3ccc(O)cc3)[nH]c2c1 (stereo unspecified)	500 (≈ 1250 µM)	500 (≈ 1250 µM)	125 (≈ 311 µM)	250 (≈ 623 µM)	1000 (≈ 2490 µM)	1000 (≈ 2490 µM)	1000 (≈ 2490 µM)	–
Cc1ccc2nc(-c3ccccc3N3C(=O)CSC3c3ccc(Cl)cc3Cl)[nH]c2c1 (stereo unspecified)	–	1000 (≈ 2200 µM)	62.5 (≈ 138 µM)	100 (≈ 220 µM)	500 (≈ 1100 µM)	500 (≈ 1100 µM)	250 (≈ 550 µM)	500 (≈ 1100 µM)
Cc1ccc2nc(-c3ccccc3N3C(=O)CSC3c3ccccc3[N+](=O)[O-])[nH]c2c1 (stereo unspecified)	250 (≈ 581 µM)	1000 (≈ 2320 µM)	500 (≈ 1160 µM)	250 (≈ 581 µM)	1000 (≈ 2320 µM)	1000 (≈ 2320 µM)	1000 (≈ 2320 µM)	–
Cc1ccc2nc(-c3ccccc3N3C(=O)CSC3c3ccccc3Cl)[nH]c2c1 (stereo unspecified)	1000 (≈ 2380 µM)	500 (≈ 1190 µM)	1000 (≈ 2380 µM)	1000 (≈ 2380 µM)	1000 (≈ 2380 µM)	1000 (≈ 2380 µM)	1000 (≈ 2380 µM)	–
Cc1ccc2nc(-c3ccccc3N3C(=O)CSC3c3ccc([N+](=O)[O-])cc3[N+](=O)[O-])[nH]c2c1 (stereo unspecified)	1000 (≈ 2100 µM)	62.5 (≈ 131 µM)	62.5 (≈ 131 µM)	250 (≈ 526 µM)	1000 (≈ 2100 µM)	1000 (≈ 2100 µM)	1000 (≈ 2100 µM)	–
Cc1ccc2nc(-c3ccccc3N3C(=O)CSC3c3cccc([N+](=O)[O-])c3)[nH]c2c1 (stereo unspecified)	62.5 (≈ 145 µM)	100 (≈ 232 µM)	25 (≈ 58.1 µM)	250 (≈ 581 µM)	1000 (≈ 2320 µM)	100 (≈ 232 µM)	100 (≈ 232 µM)	–
Cc1ccc2nc(-c3ccccc3N3C(=O)CSC3c3cccc(O)c3)[nH]c2c1 (stereo unspecified)	125 (≈ 311 µM)	250 (≈ 623 µM)	500 (≈ 1250 µM)	250 (≈ 623 µM)	100 (≈ 249 µM)	1000 (≈ 2490 µM)	500 (≈ 1250 µM)	–
COC1=CC(=O)C[C@@H](C)[C@]12Oc1c(Cl)c(OC)cc(OC)c1C2=O [GRISEOFULVIN]	–	–	–	–	100 (≈ 283 µM)	100 (≈ 283 µM)	500 (≈ 1420 µM)	–
COc1ccc(C2SCC(=O)N2c2ccccc2-c2nc3ccc(C)cc3[nH]2)cc1OC (stereo unspecified)	1000 (≈ 2240 µM)	100 (≈ 224 µM)	100 (≈ 224 µM)	250 (≈ 561 µM)	1000 (≈ 2240 µM)	1000 (≈ 2240 µM)	500 (≈ 1120 µM)	–
Cc1ccc2nc(-c3ccccc3N3C(=O)CSC3c3ccc(Cl)cc3)[nH]c2c1 (stereo unspecified)	62.5 (≈ 149 µM)	100 (≈ 238 µM)	125 (≈ 298 µM)	250 (≈ 595 µM)	1000 (≈ 2380 µM)	500 (≈ 1190 µM)	500 (≈ 1190 µM)	–
